Results from the supplement of paper PMC4862054.

What was measured:
Assay in all cases: normalised response (% of control), CellTiter-Glo; higher = more viable cells (100 = DMSO, 0 = benzethonium chloride kill control)
Conditions in all cases: incubation time: 72 h
BT-474 = system: BT-474
Method in brief: (§1)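 Compound was dispensed into 384-well plates at 5 concentrations in 10-fold steps spanning a 10,000-fold range specific to that compound. Breast cancer cell lines were added as 20 µl suspension and left for 72 h before CellTox Green fluorescence (485/520 nm) and then CellTiter-Glo luminescence, read after 10 min at room temperature. Each reported value is the normalised signal at one concentration, with 0.1 % DMSO set at 100 and a positive kill control at 0 on each plate.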

BT-549 = system: BT-549
Method in brief: as §1

CAL-120 = system: CAL-120
Method in brief: as §1

CAL-148 = system: CAL-148
Method in brief: as §1

CAL-51 = system: CAL-51
Method in brief: as §1

CAL-85-1 = system: CAL-85-1
Method in brief: as §1

DU-4475 = system: DU-4475
Method in brief: as §1

HCC1143 = system: HCC1143
Method in brief: as §1

HCC1599 = system: HCC1599
Method in brief: as §1

HCC1937 = system: HCC1937
Method in brief: as §1

HDQ-P1 = system: HDQ-P1
Method in brief: as §1

Hs578T = system: Hs578T
Method in brief: as §1

MCF-10A = system: MCF-10A
Method in brief: as §1

MDA-MB-231 = system: MDA-MB-231
Method in brief: as §1

MDA-MB-436 = system: MDA-MB-436
Method in brief: as §1

MDA-MB-453 = system: MDA-MB-453
Method in brief: as §1

MDA-MB-468 = system: MDA-MB-468
Method in brief: as §1

MFM-223 = system: MFM-223
Method in brief: as §1

SK-BR-3 = system: SK-BR-3
Method in brief: as §1

Row | Compound | normalised response (BT-474) | normalised response (BT-549) | normalised response (CAL-120) | normalised response (CAL-148) | normalised response (CAL-51) | normalised response (CAL-85-1) | normalised response (DU-4475) | normalised response (HCC1143) | normalised response (HCC1599) | normalised response (HCC1937) | normalised response (HDQ-P1) | normalised response (Hs578T) | normalised response (MCF-10A) | normalised response (MDA-MB-231) | normalised response (MDA-MB-436) | normalised response (MDA-MB-453) | normalised response (MDA-MB-468) | normalised response (MFM-223) | normalised response (SK-BR-3)
1 | C[C@H]1C[C@@H]2[C@H]([C@@H](O)C[C@@]3(C)[C@H]2CC[C@]3(O)C(=O)CO)[C@@]2(C)C=CC(=O)C=C12 [Methylprednisolone] (1 nM) | 110% | 100% | 103% | 120% | 100% | 94.5% | 108% | 99.1% | 113% | 99.3% | 99.6% | 103% | 103% | 105% | 99.5% | 116% | 104% | 103% | 109%
2 | Cc1cnc(NC(=O)Nc2cc(Br)c(C)cc2OC[C@@H]2CNCCO2)cn1 [Rabusertib] (0.1 nM) | 109% | 103% | 107% | 112% | 108% | 107% | 109% | 103% | 88.5% | 101% | 102% | 102% | 109% | 104% | 106% | 114% | 101% | 103% | 111%
3 | C=CCc1cccc(/C=N/NC(=O)CN2CCN(Cc3ccccc3)CC2)c1O [PAC-1] (1 nM) | 97.7% | 105% | 96.8% | 96% | 129% | 99.7% | 100% | 101% | 101% | 106% | 105% | 104% | 113% | 103% | 97.5% | 103% | 109% | 102% | 109%
4 | O=C(O)CCCCC(CCSCc1ccccc1)SCc1ccccc1 (configuration not stated) [CPI-613] (1 nM) | 101% | 102% | 96.3% | 107% | 78.6% | 99.2% | 101% | 105% | 97.6% | 104% | 100% | 102% | 106% | 100% | 96.5% | 107% | 103% | 99.1% | 114%
5 | C=CC(=O)Nc1cc2c(Nc3ccc(F)c(Cl)c3)ncnc2cc1OCCCN1CCOCC1 [Canertinib] (10 nM) | 106% | 95.6% | 91.7% | 102% | 84.3% | 99.6% | 107% | 99.8% | 93.8% | 89.5% | 82.4% | 103% | 76.6% | 106% | 99.2% | 99.1% | 96.3% | 103% | 91%
6 | COc1cc2c(Oc3ccc4[nH]c(C)cc4c3F)ncnc2cc1OCCCN1CCCC1 [Cediranib] (0.1 nM) | 113% | 101% | 101% | 109% | 113% | 101% | 99.9% | 98.1% | 93.4% | 104% | 103% | 94.8% | 100% | 109% | 93.3% | 107% | 110% | 103% | 106%
7 | C=CC(=O)Nc1cc2c(Nc3ccc(F)c(Cl)c3)ncnc2cc1OCCCN1CCOCC1 [Canertinib] (1 nM) | 96.8% | 104% | 95.2% | 103% | 104% | 103% | 105% | 95.6% | 93.3% | 97.3% | 98.8% | 98.6% | 108% | 104% | 94.5% | 108% | 106% | 105% | 103%
8 | CNC(=O)c1cc(Oc2ccc(NC(=O)Nc3cc(C(C)(C)C)nn3-c3ccc4ncccc4c3)c(F)c2)ccn1 [Rebastinib] (0.1 nM) | 99.5% | 95.8% | 97.7% | 104% | 122% | 96.6% | 101% | 98.3% | 105% | 107% | 105% | 103% | 109% | 101% | 97.9% | 102% | 97.1% | 101% | 113%
